Experimental data: patent US20230041065A1, “METHODS FOR GENERATING HEMATOPOIETIC STEM CELLS” (The Brigham and Women`s Hospital, Inc., priority 2019, published 2023)

Test system: E11.5 AGM-derived HSCs
Assay: Serial transplantation of E11.5 AGM-derived HSCs into irradiated mice
Type: in vivo, mouse
Protocol: Pulsating blood vessels like conditions were stimulated in vitro using Flexcell FX-4000 machine. To analyze roles of pharmacological targets in regulating the endothelial-to-HSC transition, mouse embryo-derived AGM or whole mouse embryo were exposed ex vivo with biomechanical stretching, chemicals, or drugs. Next, hematopoietic colony formation assays were performed by incubating mouse AGM-derived cells in StemCell M3434 media for seven days. Serial transplantation of AGM-derived HSCs in lethally irradiated SJL mice were performed. The stem cell frequency upon biomechanical stretching was analyzed using a limiting dilution assay. To characterize properties of AGM-HSC-derived blood cells in primary transplants, percentage chimerism and reconstitution was measured using FACS, globin transcripts were analyzed using quantitative reverse transcriptase-PCR, myeloperoxidase amount was measured using PicoKine ELISA kit, TCR-β rearrangement was analyzed using PCR for TCR-β locus, pre-immune IG detection was analyzed using Thermo-Fisher Mouse Ig Isotyping kit, and delayed-type hypersensitivity was analyzed by injecting sheep RBC (Rockland Immunochemicals) in the footpad of pre-sensitized mice.
For primary transplantation, three-embryo equivalents of untreated or treated (cyclic strain or 25 μM Yoda1) AGMs plus splenic helper cells (˜500,000 per mouse) were injected into lethally irradiated (split dose […]) Cd45.1 (SJL) mice by retro-orbital injection. For secondary and tertiary transplants, the bone marrow was isolated (legs, arm, pelvic bone, spine, sternum) from the transplanted mice. The bone marrow was loaded on a Ficoll gradient (Histopaque®-1083, Sigma-Aldrich), and the cells from the buffy coat incubated with biotin-conjugated lineage antibodies and streptavidin microbeads (Miltenyi Biotec). Next, the lineage negative (Lin^−) cells were separated with MACS LS Columns (Miltenyi Biotec), and the donor Cd45.2 Lin^−Sca1+c-Kit^+ (LSK) cells sorted with a MoFlo Beckman Coulter sorter. Subsequently, the sorted Cd45.2 LSK cells were mixed with Cd45.1 splenic helper cells (˜500,000 per mouse) and transplanted into Cd45.1 irradiated (split dose […]) SJL mice by retro-orbital injection.
AGM cells from explants and ex vivo were stained with Sca1-Pacific-Blue (E13-161.7, Biolegend) and Flk1-APC-Cy7 (Avas 12α1, BD). Blood from transplanted mice was stained with the following antibody cocktail: Cd45.2-Pacific-Blue (104, Biolegend), Cd45.1-FITC (A20, Biolegend), Cd3-PE (145-2C11, Biolegend), Cd8-PE (53-6.7, Biolegend), Mac1-APC (M1/70, Biolegend), Gr1-APC (108412, Biolegend), Cd19-APC-CY7(6D5, Biolegend), B220-APC-CY7 (RA3-6B2, Biolegend). […]

## Clc1cccc(Cl)c1CSc1nnc(-c2cnccn2)s1 [Yoda1, 2-[5-[[(2,6-Dichlorophenyl)methyl]thio]-1,3,4-thiadiazol-2-yl]-pyrazine]
Primary transplant, week 16
  percentage reconstitution to myeloid cells, T-cells and B-cells: stimulates the formation of HSCs that reconstitute to the blood
Primary transplant, weeks 8-16, treated E11.5 AGM donor cells
  percentage peripheral blood chimerism: stimulates the formation of HSCs
Secondary transplant, week 12
  percentage reconstitution to myeloid cells, T-cells and B-cells: produces HSCs that can serially reconstitute to the blood
Secondary transplant, weeks 8-12
  percentage peripheral blood chimerism: produces HSCs that have serial engraftment and self-renewal capacities
